Experiments:
[1] = Incubation with NAC monitored by NMR and LC-MS; assay type: physicochemical; settings: DMSO, 24 h, 37° C.
Description: Live-cell CellROX® assays for oxidative stress detection were conducted to evaluate whether GA-01, ergosterol, 5-6-dihydroergosterol and EP trigger intrinsic apoptosis pathways by inducing ROS. […] Menadione or t-Butyl hydrogen peroxide (TBHP) were positive controls (FIGS. 7 and S5) and co-treated with N-acetyl cysteine (NAC) to confirm that the signal was due to ROS formation induced by the compound. […] Furthermore, the possibility of the endoperoxide motif to react with NAC, was assessed EP was incubated with NAC in DMSO for 24 h at 37° C. […] Thus, the ability of EP to induce ROS could potentially be via a different mechanism from that of TBHP in MCF-7 cells.

[2] = system: T47D; assay: Cytotoxicity of EP probes via CTG assay; assay type: cell-based; settings: Homo sapiens, T47D, 72 hr
Description: (§3) Both normal cell lines HMEC and BJ cells were also evaluated to determine therapeutic index.
(§4) The concentrations used were experimentally determined to ensure logarithmic growth during the duration of the experiment and prevent adverse effects on cell growth by DMSO exposure. The plates were incubated at 37° C. in 5% CO2 for 24 h before treatment. Stock solutions of test compounds (10 mM in DMSO) in nine 3-fold serial dilutions were dispensed via pintool (Biomek). The final concentration of DMSO was 0.3% (v/v) in each well. The plates were incubated for 72 h at 37° C. in 5% CO2 and then quenched with CellTiter-Glo® reagent (50 μL/well in 96-well plate, 30 μL/well in 384-well plate) at RT. The positive controls included staurosporine (10 μM), gambogic acid (10 μM), and a toxic quinoline generated in-house. Plates were then incubated at RT for 20 min and centrifuged at 1000 rpm for 1 min. The cytotoxicity assay was performed by using the CellTiterGlo Luminescent Cell Viability Assay kit (G7570, Promega, Madison, WI) according to the manufacturer's instructions. Luminescence was recorded in an Envision plate reader (Perkin Elmer).
(§5) For the CTG assay, 3 or 4 replicate assays were conducted for each experimental condition, and a minimum of 3 independent experiments were conducted for cellular assays. The mean luminescence of each experimental treatment group was normalized as a percentage of the mean intensity of untreated controls. EC50 values (μM) were calculated by Pipeline Pilot Software (Accelrys, Enterprise Platform, CA, USA). EC50 values (μM) from the viability assay were calculated from dose response curve-fitting via non-linear regression by using GraphPad Prism (Version 7.0 San Diego, CA).

[3] = system: SUM-149 cells; assay: Reactive oxygen species (ROS) measurement, CellROX; assay type: cell-based, human
[4] = Solubility observations; assay type: physicochemical
Description: One of the liabilities with EP is sharing its core with cholesterol, an amphipathic molecule with part-water soluble, part-water insoluble character. Thus, while able to readily cross the cell membrane, the ability to deliver the pure compound faces challenges. EP's solubility properties are poor in DMSO or water unless warmed up to 30° C. However, in this report, EP's derivative, EP sulfonamide, was soluble at 10 mM in DMSO. Thus, the generation of a selective anti-cancer compound with greater potency than EP, and ample therapeutic window when compared to BJ normal cells, was accomplished.

[5] = system: MCF10A; assay type: cell-based
Description: As a control, normal human skin fibroblasts (BJ) cells and non-cancerous mammary epithelial cells (MCF10A) were used.
Cell viability assays (MTT or PI staining assays) in SUM-149, SUM-190, MDA-MB-231, and MCF10A cells were performed as we previously described [14].

[6] = system: SUM-190 IBC cells; assay: Cell viability assay (CellTiter-Glo or PI staining); assay type: cell-based; settings: SUM190; FIG. 4E
Description: Different concentrations of GLE-extracted bioactive chemical components were tested for 72-h treatment periods.
Either 1×10^3-4.8×10^3 or 4×10^2-1.2×10^3 cells were seeded to each well of 96- or 384-well white polystyrene flat-bottomed plates (3610 or 8804BC, Corning) in 100 μL or 30 μL media per well, respectively. The concentrations used were experimentally determined to ensure logarithmic growth during the duration of the experiment and prevent adverse effects on cell growth by DMSO exposure. The plates were incubated at 37° C. in 5% CO2 for 24 h before treatment. Stock solutions of test compounds (10 mM in DMSO) in nine 3-fold serial dilutions were dispensed via pintool (Biomek). The final concentration of DMSO was 0.3% (v/v) in each well. […] Luminescence was recorded in an Envision plate reader (Perkin Elmer).
as §5

[7] = system: SUM-149 cells; assay: Colony formation assay; assay type: cell-based, human; settings: 72 h treatment, 10 d culture
Description: (§1) Cells commonly fail to bypass the G1 phase of the cycle due to mutations or DNA damage, which can result in apoptosis. […] In addition, caspase 3/7 activity assays were performed as an alternate method of apoptosis detection.
SUM-149 cells (1.5×10^6 cells/well) were plated on a 6-well plate. Two days later, cell media was changed to 5% FBS, and cells were incubated at 37° C. in a 5% CO2 atmosphere for 1 h before vehicle (0.1% DMSO) or EP (5-40 μM) was added. After 72 h of treatment, cells were trypsinized and reseeded at 200 cells/mL per well in 24-well plates. After 10 d of culture, colonies were visualized by crystal violet staining, and the colony numbers were counted under a microscope.

[8] = system: SUM-149 cells; assay: Cell cycle assay; assay type: cell-based, human; settings: EP 20 μM, 48 h
Description: SUM-149 cells were treated for 48 h with EP, then collected and washed in 1×PBS. The cells (5×10^5) were fixed and permeabilized in 70% ethanol at −20° C. until further analysis. To measure the DNA content, the cells were washed and resuspended in 150 μL of PBS buffer then incubated in 100 μL of 100 μg/mL RNase A (MilliporeSigma, Burlington, MA) for 15 min at RT, then 250 μL of 50 μg/mL Propidium Iodide (MilliporeSigma) was added. Samples were incubated at RT for 10 min and analyzed on a BD FACS Canto II flow cytometer (BD Biosciences, San José, Calif.). Data were analyzed by using FlowJo software (V10, FlowJo LLC, Ashland, OR).

[9] = system: SUM-149; assay: Cytotoxicity of EP probes via CTG assay; assay type: cell-based, human; settings: Homo sapiens, SUM149, 72 hr
Description: as §3, §4, §5

[10] = system: MDA-MB-231 cells; assay: Reactive oxygen species (ROS) measurement, CellROX; assay type: cell-based, human; settings: EP 20 μM, vs vehicle
[11] = system: HMEC; assay: Cytotoxicity of EP probes via CTG assay, normal cells; assay type: cell-based; settings: Homo sapiens, HMEC, 72 hr
Description: as §3, §4, §5

[12] = system: additional cancer cellular models; assay: Cell viability assay, additional cancer models; assay type: cell-based
Description: Therefore, EP exerts selective effects on cancer cell viability, similar to the effects obtained with whole mushroom extract (GLE), indicating an ample therapeutic window for this compound.

[13] = system: SUM-149 cells; assay: ApoTox-Glo Triplex assay (caspase 3/7); assay type: cell-based, human; settings: SUM-149, 24 h
Description: as §1
(§2) Cells (9.5×10^4/well in 75 μL of fresh medium) were dispensed in 96-well black flat bottom (8807BC, Corning) plates. The cells were incubated for 12 h at 37° C. and then treated with compounds (25 μL) for 24 h. DMSO was used as a negative control, and staurosporine was used as the positive control. The experiment was stopped by adding the Viability/Cytotoxicity Reagent and briefly mixed by orbital shaking (300-500 rpm for ˜30 sec). Plates were incubated for 30 min at 37° C., and fluorescence was measured in an Envision plate reader at the following two wavelength sets: 400Ex/505Em (Viability) 485Ex/520Em (Cytotoxicity). Then, the Caspase-Glo® 3/7 Reagent was added; plates were mixed briefly by orbital shaking (300-500 rpm for ˜30 sec), followed by an additional 30 min incubation at RT. Then luminescence, which correlates with caspase 3/7 activation, was recorded with a plate reader to determine apoptosis induction.

[14] = system: MDA-MB-231 cells; assay: ApoTox-Glo Triplex assay (caspase 3/7); assay type: cell-based, human; settings: MDA-MB-231, 24 h
Description: as §1, §2

[15] = system: MDA-MB-231; assay: Cytotoxicity of EP probes via CTG assay; assay type: cell-based, human; settings: Homo sapiens, MDA-MB-231, 72 hr, read-out: MDA-MB231 EC50
Description: as §3, §4, §5

## CC(C)[C@@H](C)/C=C/[C@@H](C)[C@H]1CC[C@@H]2[C@]1(C)CC[C@H]1[C@]23C=C[C@]2(C[C@@H](O)CC[C@]12C)OO3 [EP, ergosterol peroxide]
[1]
  reaction of the endoperoxide with NAC: no observable olefin migration or opening of the endoperoxide was detected
[2]
  EC50: 19 µM
[3]; EP 20 μM, vs vehicle
  ROS formation, fold: 4 fold
[3]; NAC 500 μM
  reduction in ROS formation in the presence of NAC: about 20%
[4]
  solubility properties (in words): poor
[5]
  cytotoxicity in MCF10A non-cancerous mammary epithelial cells: did not induce cytotoxicity
[6]
  EC50: 43 µM
[7]
  number and size of colonies formed: concentration-dependent decrease
[8]
  increase in percentage of cells in G1 phase: ~20%
  reduction of the percentage of cells in G2/M: 10%
[9]
  EC50: 6 µM
[10]
  ROS formation, fold: 2 fold
[11]
  EC50: > 20 µM
[12]
  EC50: 7 to 22 µM
[13]
  caspase 3/7 activity: increase caspase 3/7 activity
[14]
  caspase 3/7 activity: increase caspase 3/7 activity
[15]
  EC50: 18 µM
